PMC9697187 (Viruses, 2022)
Read-outs that look alike come from different tables or passages of the source.

How the values were obtained:
[1] = system: FIPV serotype II (WSU-79-1146); assay: Combined anticoronaviral therapy; type: cell-based, feline infectious peritonitis virus (FIPV); settings: WSU-79-1146, CRFK cells, alone and combined determined concurrently
[2] = system: FIPV serotype I (Black I); assay: Colorimetric CPE bioassay; type: cell-based, feline infectious peritonitis virus (FIPV); settings: for EC50: read-out: EC50 against Black I (serotype I FIPV)
FIPV II = settings: cited from earlier work
CEM/C1 human cell line = settings: cited from earlier work
[3] = Single dose pharmacokinetics of orally administered MPV in SPF cats; type: in vivo, cat
[4] = system: FIPV serotype II (WSU-79-1146); assay: Colorimetric CPE bioassay; type: cell-based, feline infectious peritonitis virus (FIPV); settings: for EC50: read-out: EC50 against WSU-79-1146 (serotype II FIPV)
CRFK cells = settings: cited from earlier work
[5] = set-up: method as in not printed at the place; settings: read-out: Cmax of GS-441524; subcutaneously administered at 5 mg/kg, cats; ref not given; cited from earlier work
in vivo = assay: in vivo; set-up: species or system cat; settings: male; for Cmax: Cmax of GS-441524
[6] = system: feline infectious peritonitis (FIP); settings: cited from earlier work; for Cats clinically cured of FIP: retrospective study, treated with either GC376 or GS-441524
[7] = FCWF-4 CU cells, MOI 0.1, 72 h, monotherapy
[8] = male, serum, po, 10 mg/kg, 10 mg/kg oral molnupiravir, mean of 3 cats
[9] = serum MPV, 10 mg/kg oral molnupiravir, mean of 3 cats, 10 mg/kg
[10] = Alphacoronavirus 1, read-out: EC50, combination experiment (A) nirmatrelvir and MPV
[11] = Alphacoronavirus 1, FCWF-4 CU cells, MOI 0.1, 72 h, monotherapy
[12] = clinical trial, naturally occurring FIP
[13] = owner survey, unlicensed GS-441524
[14] = Alphacoronavirus 1, read-out: EC50, combination experiment (C) remdesivir and nirmatrelvir
[15] = Alphacoronavirus 1, CRFK cells, MOI 0.1, 72 h, monotherapy

Question: For `CC(C)C[C@H](NC(=O)OCc1ccccc1)C(=O)N[C@@H](CC1CCNC1=O)C(O)S(=O)(=O)O` (stereo partly shown) [GC376], which EC50 ([1]; read-out: EC50, combination experiment (B) GC376 and remdesivir) is on record?
Answer: 406 nM

Question: And the EC50 [2, 7]?
Answer: 10 nM

Question: And the EC50 (FIPV II; prior study, read-out: EC50 against FIPV II)?
Answer: 900 nM

Question: With `O=c1nc(NO)ccn1[C@@H]1O[C@H](CO)[C@@H](O)[C@H]1O` [NHC, β-D-N^4-hydroxycytidine] as the compound, how does the CC50 (CEM/C1 human cell line) read?
Answer: 7500 nM

Question: What about the “Serum exposure relative to the NHC EC50” value ([3]; in vivo) of the same compound?
Answer: greater than the NHC EC50

Question: What about the “Kel of NHC” value ([3]; in vivo, po, 10 mg/kg) of the same compound?
Answer: 0.2 h⁻¹

Question: What about the EC50 [2, 7] of the same compound?
Answer: 50 nM

Question: What about the “EC50 against Black I expressed as” value ([2]; equivalent of 0.05 μM) of the same compound?
Answer: 0.0129 µg/mL

Question: What about the EC50 ([4]; CRFK cells, MOI 0.1, 72 h, monotherapy) of the same compound?
Answer: 110 nM

Question: What about the “Cytotoxicity in CRFK cells” value (CRFK cells) of the same compound?
Answer: cytotoxicity has also been documented

Question: What does the source list for `CC(C)C(=O)OC[C@H]1O[C@@H](n2ccc(NO)nc2=O)[C@H](O)[C@@H]1O` [MPV, molnupiravir]?
Answer: Detection of MPV in serum over 24 h ([3]; 10 mg/kg oral MPV): not detected after the 12-h time point; Peak detection time point in serum, aggregate of three cats ([3]; 10 mg/kg oral MPV, Figure 3B): approximately 1.5 h; CL/F [3, 8]: 347 L/h/kg; MRT [3, 8]: 4.6 h; AUC(0-t) ([3]; male, serum, po, 10 mg/kg, 10 mg/kg oral molnupiravir, mean of 3 cats, read-out: AUC0-t of MPV): 0.085 µM·h; Vd/F ([3]; male, serum, po, 10 mg/kg, 10 mg/kg oral molnupiravir, mean of 3 cats, read-out: Vz/F of MPV): 881 L/kg; AUC ([3]; male, serum, po, 10 mg/kg, serum MPV, 10 mg/kg oral molnupiravir, individual cat): 39.6 ng·h/mL; AUC(0-t) ([3]; male, serum, po, 10 mg/kg, serum MPV, 10 mg/kg oral molnupiravir, mean of 3 cats, read-out: AUC (AUC0-t) of MPV): 27.5 ng·h/mL; AUC (AUC0-t) of MPV [3, 9]: 27.5 ng·h/mL; Cmax [3, 9]: 0.04 µM; Cmax of MPV [3, 9]: 14.2 ng/mL; EC50 [1, 10]: 693 nM; EC50 [2, 11]: 16 nM; EC50 ([4]; Alphacoronavirus 1, CRFK, 72 h): 700 nM

Question: What does the source list for `N#C[C@@]1(c2ccc3c(N)ncnn23)O[C@H](CO)[C@@H](O)[C@H]1O` [GS-441524]?
Answer: EC50 [2, 11]: 20 nM; Cmax [5]: ~10 µM; EC50 ([4]; Alphacoronavirus 1, CRFK, 72 h): 610 nM; EC50 (FIPV II; previously reported, read-out: EC50 against serotype II FIPV): 780 nM; concentration at 24 h (in vivo; cat, GS-441524 remaining in plasma 24 h post-treatment): 0.22 to 2 µM; AUC(0-t) (in vivo; iv, 7 mg/kg, AUC0-24 of GS-441524): 45 µM·h; Cmax (in vivo; iv, 7 mg/kg): 6.9 µM; AUC(0-t) (in vivo; po, 25 mg/kg, AUC (AUC0-24) of GS-441524): 89700 ng·h/mL; Cmax (in vivo; po, 25 mg/kg): 13300 ng/mL; half-life (in vivo; po, 25 mg/kg, T1/2 of GS-441524): 4.5 h; Cats healthy and disease free at the time of publication [6, 12]: 25 of 31; Cats with successful resolution of disease ([6]; neurological FIP, escalating dose): 3 of 4; Cats with neurological or ocular signs successfully treated ([6]; owner survey responses): 161 of 169; Cats alive at the time of publication ([6]; owner survey, unlicensed GS-441524, n = 380): 96.7%; Cats considered cured [6, 13]: 54.0%; Cats still being monitored in the 12-week observation period [6, 13]: 43.3%; Cats clinically cured of FIP [6]: 29 of 30

Question: For `CC(C)C[C@H](NC(=O)OCc1ccccc1)C(=O)N[C@@H](C[C@@H]1CCNC1=O)C(O)S(=O)(=O)[O-].[Na+]` (stereo partly shown) [GC376], which Cats in remission [6, 12] is on record?
Answer: seven of the 20

Question: And the “Cats clinically cured of FIP” value [6]?
Answer: 29 of 30

Question: For `CC(C)(C)[C@H](NC(=O)C(F)(F)F)C(=O)N1C[C@H]2[C@@H]([C@H]1C(=O)N[C@H](C#N)C[C@@H]1CCNC1=O)C2(C)C` [nirmatrelvir], which EC50 [1, 10] is on record?
Answer: 1310 nM

Question: What about the EC50 [1, 14] of the same compound?
Answer: 2940 nM

Question: What about the EC50 ([2]; Alphacoronavirus 1, 72 h) of the same compound?
Answer: 16 nM

Question: What about the EC50 [4, 15] of the same compound?
Answer: 1310 nM

Question: And the “Differential efficacy, EC50 for FIPV I relative to FIPV II” value ([4]; Black I vs WSU-79-1146)?
Answer: ~100 fold

Question: Which EC50 ([1]; Alphacoronavirus 1, read-out: EC50, combination experiment (B) GC376 and remdesivir) does the source give for `CCC(CC)COC(=O)[C@H](C)N[P@](=O)(OC[C@H]1O[C@@](C#N)(c2ccc3c(N)ncnn23)[C@H](O)[C@@H]1O)Oc1ccccc1` [RDV, remdesivir] here?
Answer: 181 nM

Question: What about the EC50 [1, 14] of the same compound?
Answer: 6420 nM

Question: What about the EC50 [2, 11] of the same compound?
Answer: 30 nM

Question: What about the EC50 [4, 15] of the same compound?
Answer: 180 nM
